From patent publication US20260000676A1, “CHROMAN DERIVATIVES AS ESTROGEN RECEPTOR DEGRADERS” (THE REGENTS OF THE UNIVERSITY OF MICHIGAN, priority 2022, published 2026)
Structures can show the parent of a compound that is named as a salt. Each block holds one compound with its values, some of them ahead of it.

Legend:
[1] = biological target: T1, ER (Homo sapiens (Human), UniProt P03372); experiment: In-cell western (ICW) ER degradation assay in MCF-7 cells; assay type: cell-based; conditions: MCF7, 16 hrs; for DC50: ER degradation; for Dmax: MCF7, maximal ER degradation
Experimental: (§1) ERa degradative activity of compounds can be assessed in MCF-7 and T47D Cells. MCF-7 and T47D cell are seeded and are subsequently treated with the compounds at certain concentrations (e.g., 0.02 to 300 nM). DMSO can be used as vehicle control. Cells are fixed and are blocked with Intercept (PBS) Blocking Buffer (e.g., Li-COR, Odyssey Blocking Buffer), and are stained with ER (e.g., 1:500, Cell signaling) primary antibody for overnight at cold room. Secondary Antibody (e.g., IRDye 800CW Goat anti-Rabbit IgG) and CellTag 700 Stain are added in Intercept (PBS) Blocking Buffer. Finally, cell plate is placed in incubator to dry. Image and signal are captured on Odyssey® DLx Imaging System.
(§2) Day 3: After 16 hrs of compounds treatment, cells were fixed by 4% PFA and permeabilized with elution buffer (0.1% Triton X-100 in 1% PBS Solution). Subsequently, cells were blocked with Intercept (PBS) Blocking Buffer (Li-COR, Odyssey Blocking Buffer), and were stained with ER (1:500, Cell signaling) primary antibody for overnight at cold room.
(§3) Day 4: Remove the buffer, add IRDye 800CW Goat anti-Rabbit IgG Secondary Antibody (1:2000) and CellTag 700 Stain (1:500) in Intercept (PBS) Blocking Buffer. Finally, cell plate is placed in incubator to dry. Image and signal were captured on Odyssey® DLx Imaging System.

[2] = biological target: T1, ER; experiment: In-cell western (ICW) ER degradation assay in T47D cells; assay type: cell-based; conditions: 16 hrs; for Dmax: maximal ER degradation; for DC50: ER degradation
Experimental: as §1, §2, §3

T1 sequence (P03372 whole entry): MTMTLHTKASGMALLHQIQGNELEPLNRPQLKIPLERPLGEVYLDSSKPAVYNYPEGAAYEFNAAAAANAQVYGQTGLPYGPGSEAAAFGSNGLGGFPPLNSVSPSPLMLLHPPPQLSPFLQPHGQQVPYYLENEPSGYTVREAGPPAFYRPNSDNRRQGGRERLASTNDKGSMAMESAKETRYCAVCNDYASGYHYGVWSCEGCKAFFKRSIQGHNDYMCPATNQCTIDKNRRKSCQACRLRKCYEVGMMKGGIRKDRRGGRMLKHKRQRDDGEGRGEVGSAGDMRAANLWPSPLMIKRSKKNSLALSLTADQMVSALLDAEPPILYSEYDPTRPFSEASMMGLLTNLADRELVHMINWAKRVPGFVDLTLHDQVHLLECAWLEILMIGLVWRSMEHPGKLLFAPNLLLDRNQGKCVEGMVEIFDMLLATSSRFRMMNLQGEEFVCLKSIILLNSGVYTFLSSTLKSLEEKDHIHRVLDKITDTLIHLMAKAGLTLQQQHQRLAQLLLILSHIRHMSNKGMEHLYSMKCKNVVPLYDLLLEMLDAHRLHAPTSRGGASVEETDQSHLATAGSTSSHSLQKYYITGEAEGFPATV

DC50 [1]: 1 to 10 nM
Dmax [1]: 50 to 75%
SMILES: O=C1CCC(N2Cc3cc4c(cc3C2=O)OC[C@@H]2CN(CC3CCN(c5ccc([C@@H]6c7ccc(O)cc7OC[C@@H]6c6ccccc6)cc5)CC3)CCN42)C(=O)N1 (single isomer, unassigned) [Compound A1]

DC50 [1]: 1 to 10 nM
SMILES: O=C1CCC(N2Cc3cc4c(cc3C2=O)OC[C@@H]2CN(CC3CCN(c5ccc([C@@H]6c7ccc(O)cc7OC[C@@H]6c6ccccc6)cc5F)CC3)CCN42)C(=O)N1 (single isomer, unassigned) [Compound A2, 3-((S)-3-((1-(2-fluoro-4-((3S,4R)-7-hydroxy-3-phenylchroman-4-yl)phenyl)piperidin-4-yl)methyl)-8-oxo-1,2,3,4,4a, 5,8,10-octahydro-9H-pyrazino[1′,2′:4,5][1,4]oxazino[2,3-f]isoindol-9-yl)piperidine-2,6-dione]

Dmax [1]: 50 to 75%
SMILES: O=C1CCC(N2Cc3cc4c(cc3C2=O)OC[C@@H]2CN(CC3CCN(c5ccc([C@@H]6c7ccc(O)cc7OC[C@@H]6c6ccccc6)cc5F)CC3)CCN42)C(=O)N1 (single isomer, unassigned) [Compound A2]

SMILES: O=C1CCC(N2C(=O)c3cc4c(cc3C2=O)CN(CC(=O)N2CCC3(CC2)CCN(c2ccc([C@@H]5c6ccc(O)cc6OC[C@@H]5c5ccccc5)cc2)CC3)C4)C(=O)N1 (single isomer, unassigned) [Compound A3]
DC50 [1]: 1 to 10 nM
Dmax [1]: 25 to 50%

DC50 [1]: < 1 nM
SMILES: COc1ccc([C@H]2COc3cc(O)ccc3[C@H]2c2ccc(N3CCC(CN4CCN5c6ccc7c(c6OC[C@H]5C4)CN(C4CCC(=O)NC4=O)C7=O)CC3)cc2)cc1 (single isomer, unassigned) [Compound A16, 3-((R)-7-((1-(4-((3S,4R)-7-hydroxy-3-(4-methoxyphenyl)chroman-4-yl)phenyl)piperidin-4-yl)methyl)-1-oxo-1,3,5,5a, 6,7,8,9-octahydro-2H-pyrazino[1′,2′:4,5][1,4]oxazino[2,3-e]isoindol-2-yl)piperidine-2,6-dione]

Dmax [1]: 50 to 75%
SMILES: COc1ccc([C@H]2COc3cc(O)ccc3[C@H]2c2ccc(N3CCC(CN4CCN5c6ccc7c(c6OC[C@H]5C4)CN(C4CCC(=O)NC4=O)C7=O)CC3)cc2)cc1 (single isomer, unassigned) [Compound A16]

SMILES: COc1cccc([C@H]2COc3cc(O)ccc3[C@H]2c2ccc(N3CCC(CN4CCN5c6ccc7c(c6OC[C@H]5C4)CN(C4CCC(=O)NC4=O)C7=O)CC3)cc2)c1 (single isomer, unassigned) [Compound A33, 3-((R)-7-((1-(4-((3S,4R)-7-hydroxy-3-(3-methoxyphenyl)chroman-4-yl)phenyl)piperidin-4-yl)methyl)-1-oxo-1,3,5,5a,6,7,8,9-octahydro-2H-pyrazino[1′,2′:4,5][1,4]oxazino[2,3-e]isoindol-2-yl)piperidine-2,6-dione]
Dmax [1]: 50 to 75%
Dmax [2]: 50 to 75%

SMILES: O=C1CCC(N2Cc3cc4c(cc3C2=O)OC[C@@H]2CN(CC3CCN(c5ccc([C@@H]6c7ccc(O)cc7OC[C@@H]6c6ccccc6)cn5)CC3)CCN42)C(=O)N1 (single isomer, unassigned) [Compound A70, 3-((S)-3-((1-(5-((3S,4R)-7-hydroxy-3-phenylchroman-4-yl)pyridin-2-yl)piperidin-4-yl)methyl)-8-oxo-1,2,3,4,4a,5,8,10-octahydro-9H-pyrazino[1′,2′:4,5][1,4]oxazino[2,3-f]isoindol-9-yl)piperidine-2,6-dione]
Dmax [1]: < 25%
Dmax [2]: 25 to 50%

SMILES: O=C1CC[C@@H](N2Cc3c(ccc4c3OC[C@H]3CN(CC5CC6(CCN(c7ccc([C@@H]8c9ccc(O)cc9OC[C@@H]8c8ccccc8)cc7)CC6)C5)CCN43)C2=O)C(=O)N1 (single isomer, unassigned) [Compound A89]
DC50 [1]: < 1 nM
Dmax [1]: ≥ 75%
DC50 [2]: < 1 nM
Dmax [2]: ≥ 75%

SMILES: O=C1CCC(Nc2ccc3c(c2)OC[C@H]2CN(CC4CCN(c5ccc([C@@H]6c7ccc(O)cc7OC[C@@H]6c6ccccc6)cc5)CC4)CCN32)C(=O)N1 (single isomer, unassigned) [Compound A91, 3-(((R)-3-((1-(4-((3S,4R)-7-hydroxy-3-phenylchroman-4-yl)phenyl)piperidin-4-yl)methyl)-1,2,3,4,4a,5-hexahydrobenzo[b]pyrazino[1,2-d][1,4]oxazin-8-yl)amino)piperidine-2,6-dione hydrochloride]
Dmax [1]: 50 to 75%
Dmax [2]: 50 to 75%

SMILES: COc1cc(N2CCC(CN3CCN4c5ccc6c(c5OC[C@@H]4C3)CN([C@@H]3CCC(=O)NC3=O)C6=O)CC2)ccc1[C@H]1c2ccc(O)cc2OC[C@H]1c1ccccc1 (single isomer, unassigned) [Compound A121, (R)-3-((S)-7-((1-(4-((3R,4S)-7-hydroxy-3-phenylchroman-4-yl)-3-methoxyphenyl)piperidin-4-yl)methyl)-1-oxo-1,3,5,5a, 6,7,8,9-octahydro-2H-pyrazino[1′,2′:4,5][1,4]oxazino[2,3-e]isoindol-2-yl)piperidine-2,6-dione]
DC50 [1]: < 1 nM
DC50 [2]: < 1 nM

SMILES: O=C1CC[C@@H](N2Cc3c(ccc4c3OC[C@@H]3CN(CC5COC6(CCN(c7ccc([C@@H]8c9ccc(O)cc9OC[C@@H]8c8ccccc8)cc7F)CC6)C5)CCN43)C2=O)C(=O)N1 (single isomer, unassigned) [Compound A158, (3R)-3-((5aS)-7-((8-(2-fluoro-4-((3S,4R)-7-hydroxy-3-phenylchroman-4-yl)phenyl)-1-oxa-8-azaspiro[4.5]decan-3-yl)methyl)-1-oxo-1,3,5,5a,6,7,8,9-octahydro-2H-pyrazino[1′,2′:4,5][1,4]oxazino[2,3-e]isoindol-2-yl)piperidine-2,6-dione]
Dmax [1]: 50 to 75%
Dmax [2]: ≥ 75%

SMILES: O=C1CC[C@@H](N2Cc3cc4c(cc3C2=O)OC[C@H]2CN(CC3COC5(CCN(c6ccc(C7c8ccc(O)cc8OCC7c7ccccc7)cc6)CC5)C3)CCN42)C(=O)N1 (stereo in doubt) [Compound A139, (3R)-3-((4aR)-3-((8-(4-((3R,4S)-7-hydroxy-3-phenylchroman-4-yl)phenyl)-1-oxa-8-azaspiro[4.5]decan-3-yl)methyl)-8-oxo-1,2,3,4,4a, 5,8,10-octahydro-9H-pyrazino[1′,2′:4,5][1,4]oxazino[2,3-f]isoindol-9-yl)piperidine-2,6-dione]
DC50 [1]: < 1 nM
Dmax [1]: 50 to 75%
DC50 [2]: < 1 nM
Dmax [2]: 50 to 75%

SMILES: COc1cc(N2CCC(CN3CCC(c4ccc(N[C@H]5CCC(=O)NC5=O)cc4)CC3)CC2)ccc1[C@@H]1c2ccc(O)cc2OC[C@@H]1c1ccccc1 (stereo in doubt) [Compound A149, (S)-3-((4-(1-((1-(4-((3S,4R)-7-hydroxy-3-phenylchroman-4-yl)-3-methoxyphenyl)piperidin-4-yl)methyl)piperidin-4-yl)phenyl)amino)piperidine-2,6-dione]
DC50 [1]: < 1 nM
Dmax [1]: 50 to 75%
DC50 [2]: < 1 nM
Dmax [2]: 50 to 75%

SMILES: O=C1CCC(N2Cc3cc4c(cc3C2=O)OCC42CCN(CC3CC4(CCN(c5ccc([C@@H]6c7ccc(O)cc7OC[C@@H]6c6ccccc6)cc5)CC4)C3)CC2)C(=O)N1 (stereo partly drawn) [Compound A71, 3-(1′-((7-(4-((3S,4R)-7-hydroxy-3-phenylchroman-4-yl)phenyl)-7-azaspiro[3.5]nonan-2-yl)methyl)-7-oxo-5,7-dihydro-2H,6H-spiro[furo[2,3-f]isoindole-3,4′-piperidin]-6-yl)piperidine-2,6-dione]
DC50 [1]: < 1 nM
Dmax [1]: 50 to 75%
DC50 [2]: < 1 nM
Dmax [2]: 50 to 75%

SMILES: O=C1CCC(N2Cc3cc4c(cc3C2=O)OCC42CCN(CC3CCN(c4ccc([C@@H]5c6ccc(O)cc6OC[C@@H]5c5ccccc5)cc4)CC3)CC2)C(=O)N1 (stereo partly drawn) [Compound A86, 3-(1′-((1-(4-((3S,4R)-7-hydroxy-3-phenylchroman-4-yl)phenyl)piperidin-4-yl)methyl)-7-oxo-5,7-dihydro-2H,6H-spiro[furo[2,3-f]isoindole-3,4′-piperidin]-6-yl)piperidine-2,6-dione]
DC50 [2]: < 1 nM
Dmax [2]: 25 to 50%

SMILES: O=C1CCC(N2Cc3cc4c(cc3C2=O)OCC42CCN(CC3CC4(CCN(c5ccc([C@H]6c7ccc(O)cc7OC[C@H]6c6ccccc6)cn5)CC4)C3)CC2)C(=O)N1 (stereo partly drawn) [Compound A123, 3-(1′-((7-(5-((3R,4S)-7-hydroxy-3-phenylchroman-4-yl)pyridin-2-yl)-7-azaspiro[3.5]nonan-2-yl)methyl)-7-oxo-5,7-dihydro-2H,6H-spiro[furo[2,3-f]isoindole-3,4′-piperidin]-6-yl)piperidine-2,6-dione]
DC50 [1]: < 1 nM
Dmax [1]: 50 to 75%
DC50 [2]: < 1 nM
Dmax [2]: 50 to 75%

SMILES: O=C1CC[C@@H](N2Cc3c(ccc4c3OCC43CCN(CC4CC5(CCN(c6ccc([C@H]7c8ccc(O)cc8OC[C@H]7c7ccccc7)cc6)CC5)C4)CC3)C2=O)C(=O)N1 [Compound A143, (R)-3-(1′-((7-(4-((3R,4S)-7-hydroxy-3-phenylchroman-4-yl)phenyl)-7-azaspiro[3.5]nonan-2-yl)methyl)-6-oxo-6,8-dihydro-2H,7H-spiro[furo[2,3-e]isoindole-3,4′-piperidin]-7-yl)piperidine-2,6-dione]
DC50 [1]: 10 to 100 nM
Dmax [1]: 25 to 50%
DC50 [2]: 10 to 100 nM
Dmax [2]: 25 to 50%
